Where “and” joins values, the source holds several entries; their conditions need not be identical. Equal entries are not always repeated. Entries after “also recorded” stand apart in the source; their conditions may differ. Structures can show the parent of a compound that is named as a salt. Where two headings read alike, the source gives them in different places.
Tests used:
[1] = target: T1, κ (Mus musculus, UniProt P33534); type: in vivo, male Swiss-Webster mice; conditions: for ED50 Ratio (95% C.L.): mouse, in vivo
T1 construct: male Swiss-Webster mice; from tissue; host or cells: living mouse (male Swiss-Webster)

[2] = target: T2, κ (Cavia porcellus, UniProt P41144); experiment: Binding to κ sites, competition with [3H]U69593, guinea pig brain membranes; conditions: geometric mean of three replicates
T2 construct: Guinea Pig Brain Membranes; from tissue; host or cells: guinea pig brain membranes
Protocol: (§1) The opioid receptor affinities of the target compounds were determined on guinea pig membranes employing a modification of the method of Werling et al., J. Pharmacol. Exp. Ther., 233, 722 (1986).

[3] = target: δ1 (Mus musculus, UniProt P32300); conditions: for ED50 Ratio (95% C.L.): ED50 with antagonist/control ED50, DPDPE i.c.v.; for antagonist potency, central vs peripheral delivery (in words): central (i.c.v.) vs peripheral (i.v.); for Dose required to double the ED50 of DPDPE, i.c.v. / Dose required to double the ED50 of DPDPE, i.v.: antagonist dose/(ED50 ratio - 1); for antagonism of DPDPE antinociception (in words): i.v. or i.c.v., mice
[4] = target: μ opioid receptor (Cavia porcellus, UniProt A0ACM8Q262); conditions: GPI, morphine, antagonist 100 nM
[5] = target: T3, δ2 (Mus musculus, UniProt P32300); experiment: Tail-flick assay, antagonism of DSLET (δ2) antinociception; type: in vivo, male Swiss-Webster mice; conditions: for ED50 Ratio (95% C.L.): ED50 with antagonist/control ED50, DSLET i.c.v., antagonist 20 pmol/kg i.c.v.
T3 construct: male Swiss-Webster mice; from tissue; host or cells: living mouse (male Swiss-Webster)

[6] = target: T4, δ1 (Cavia porcellus, UniProt A0A286XTF2); experiment: biochemical; type: binding, guinea pig
T4 construct: Guinea Pig Brain Membranes; from tissue; host or cells: guinea pig brain membranes
Protocol: as §1

[7] = tested on: δ2; experiment: biochemical; type: binding, guinea pig; conditions: DSLET vs DPDPE
Protocol: as §1

[8] = tested on: δ1; experiment: biochemical; type: binding, guinea pig; conditions: for preference between δ1 and δ2 putative binding sites (in words): [3H]DPDPE vs [3H]DSLET
Protocol: as §1

[9] = target: δ opioid receptors (Mus musculus, UniProt P32300); experiment: Antagonism of DADLE (δ) in electrically stimulated mouse vas deferens (MVD) preparation; conditions: for Kb: Ke (nM); for IC50 ratio DADLE(δ): 15 min preincubation
[10] = target: T5, μ (Mus musculus, UniProt P42866); experiment: Tail-flick assay, antagonism of morphine (μ) antinociception; type: in vivo, male Swiss-Webster mice; conditions: for ED50 Ratio (95% C.L.): ED50 with antagonist/control ED50, morphine s.c., antagonist 20 pmol/kg i.c.v.
T5 construct: male Swiss-Webster mice; from tissue; host or cells: living mouse (male Swiss-Webster)

[11] = target: κ opioid receptor (Cavia porcellus, UniProt P41144); conditions: GPI, ethylketazocine, antagonist 100 nM
[12] = target: T6, δ2 (Cavia porcellus, UniProt A0A286XTF2); experiment: biochemical; type: binding, guinea pig
T6 construct: Guinea Pig Brain Membranes; from tissue; host or cells: guinea pig brain membranes
Protocol: as §1

[13] = tested on: δ2; conditions: Jiang et al.; Korlipara et al.; cited from earlier work
[14] = compared with 2 or 3; cited from earlier work
[15] = tested on: rats; conditions: compared to peptidyl delta-opioid receptor antagonists; Ser. No. 07/750,109; cited from earlier work
[16] = MVD, DADLE, Ke = [antagonist]/(IC50 ratio - 1), antagonist 100 nM
[17] = MVD DADLE IC50 ratio / GPI EK IC50 ratio
[18] = MVD DADLE IC50 ratio / GPI morphine IC50 ratio
[19] = using calculated IC50 ratio (238) based on 100 nM of 7

SMILES	IC50 ratio M(μ) [4]	Ki Selectivity Ratio δ1/δ2 [8]	Kb [9, 16]	IC50 Selectivity Ratio δ/κ [9, 17]	IC50 Selectivity Ratio δ/μ [9, 18]	IC50 ratio DADLE(δ) ([9]; MVD, antagonist 100 nM)	IC50 ratio EK (κ) [11]	Ki [12] [nM]	Ki [6] [nM]	Ki Selectivity Ratio κ/δ1 [8]	Ki Selectivity Ratio μ/δ1 [8]	also measured
O=C(O)CNC(=O)c1cccc2c3c([nH]c12)[C@@H]1Oc2c(O)ccc4c2[C@@]12CCN(CC1CC1)[C@H](C4)[C@]2(O)C3 [Compound 2, 7'-(Carboxamidoglycine)-17-(cyclopropylmethyl)-6,7-dehydro-3,14-dihydroxy-4,5α-epoxy-6,7,2',3'-indolomorphinan hydrochloride]	1.5 ± 0.1	8.2	3.2 nM and 1 to 5 nM	30	21	32 ± 8	1.1 ± 0.2					antagonism of U50488 antinociception (in words) ([1]; mice): No significant antagonism; ED50 Ratio (95% C.L.) [1]: 0.8 (0.7-0.9); Ki [2]: 162 nM; ED50 Ratio (95% C.L.) ([3]; antagonist 20 pmol/kg i.c.v.): 5.3 (3.6-7.7); ED50 Ratio (95% C.L.) ([3]; antagonist 0.9 μmol/kg i.v.): 2.7 (1.9-4.0); antagonist potency, central vs peripheral delivery (in words) [3]: highly potent δ opioid antagonists when administered centrally, and many orders of magnitude less potent when delivered by the peripheral route; Dose required to double the ED50 of DPDPE, i.c.v. [3]: 4.7 pmol/kg; antagonism of DPDPE antinociception (in words) [3]: effectively antagonized the antinociceptive effect of the δ1 agonist, DPDPE; Dose required to double the ED50 of DPDPE, i.v. [3]: 0.53 µmol/kg; in vivo δ subtype selectivity (in words) ([3]; mouse, in vivo): antagonized the δ1 agonist, DPDPE, but not the δ2 agonist, DSLET; i.v./i.c.v. dose ratio relative to that of NTI (times greater) [3]: 15; ED50 Ratio (95% C.L.) [5]: 1.1 (0.8-1.6); antagonism of DSLET antinociception (in words) ([5]; mice): No significant antagonism; affinity for δ1 sites relative to NTI (times greater) [6]: 2 times; factor by which compound competed more effectively with [3H]DSLET than with [3H]DPDPE for δ sites [7]: 8-10; preference between δ1 and δ2 putative binding sites (in words) [8]: greater affinity for δ2 relative to δ1 putative binding sites; ED50 Ratio (95% C.L.) [10]: 0.9 (0.8-1.1); antagonism of morphine antinociception (in words) ([10]; mice): No significant antagonism
O=C(O)C[C@H](NC(=O)c1cccc2c3c([nH]c12)[C@@H]1Oc2c(O)ccc4c2[C@@]12CCN(CC1CC1)[C@H](C4)[C@]2(O)C3)C(=O)O [Compound 3, 7'-(Carboxamido-L-aspartate)-17-(cyclopropylmethyl)-6,7-dehydro-3,14-dihydroxy-4,5α-epoxy-6,7,2',3'-indolomorphinan hydrochloride]	1.3 ± 0.5	0.3	1.1 nM and 1 to 5 nM	43	67	89 ± 20	2.1 ± 0.6	0.41	0.14	6246	2574	ED50 Ratio (95% C.L.) [1]: 0.7 (0.4-1.2); ED50 Ratio (95% C.L.) ([3]; antagonist 0.8 μmol/kg i.v.): 2.3 (1.7-3.1); ED50 Ratio (95% C.L.) ([3]; antagonist 20 omol/kg (i.c.v.) as printed): 2.6 (2.0-3.6); antagonist potency, central vs peripheral delivery (in words) [3]: highly potent δ opioid antagonists when administered centrally, and many orders of magnitude less potent when delivered by the peripheral route; Dose required to double the ED50 of DPDPE, i.c.v. [3]: 12.5 pmol/kg; antagonism of DPDPE antinociception (in words) [3]: selectively antagonized DPDPE; Dose required to double the ED50 of DPDPE, i.v. [3]: 0.62 µmol/kg; in vivo δ subtype selectivity (in words) ([3]; mouse, in vivo): antagonized the δ1 agonist, DPDPE, but not the δ2 agonist, DSLET; Ratio (i.v./i.c.v.) of doses required to produce equivalent antagonism of DPDPE-induced antinociception ([3]; mouse, in vivo, hydrochloride): 49,600 and > 49,000; i.v./i.c.v. dose ratio relative to that of NTI (times greater) [3]: 7; ED50 Ratio (95% C.L.) [5]: 0.5 (0.3-1.1); preference between δ1 and δ2 putative binding sites (in words) ([8]; hydrochloride): modest preference for [^3 H]DPDPE sites; also recorded: modest preference for δ1 over δ2 sites; ED50 Ratio (95% C.L.) [10]: 1.0 (0.7-1.5)
NCCC[C@H](NC(=O)c1cccc2c3c([nH]c12)[C@@H]1Oc2c(O)ccc4c2[C@@]12CCN(CC1CC1)[C@H](C4)[C@]2(O)C3)C(=O)O [Compound 4, 7'-(Carboxamido L-ornithine)-17-(cyclopropylmethyl)-6,7-dehydro-3,14-dihydroxy-4,5α-epoxy-6,7,2',3'-indolomorphinan hydrochloride]	3.0 ± 1	11.3	1.8 nM and 1 to 5 nM	63	20	58 ± 15	0.9 ± 0.0	0.015	0.18	320	756	factor by which compound competed more effectively with [3H]DSLET than with [3H]DPDPE for δ sites [7]: 8-10; preference between δ1 and δ2 putative binding sites (in words) [8]: greater affinity for δ2 relative to δ1 putative binding sites
N=C(N)NCCC[C@H](NC(=O)c1cccc2c3c([nH]c12)[C@@H]1Oc2c(O)ccc4c2[C@@]12CCN(CC1CC1)[C@H](C4)[C@]2(O)C3)C(=O)O [Compound 5, 7'-(Carboxamido-L-arginine)-17-(cyclopropylmethyl)-6,7-dehydro-3,14-dihydroxy-4,5α-epoxy-6,7,2',3'-indolomorphinan hydrochloride]	1.3 ± 0.6	1.9	3.3 nM and 1 to 5 nM	27	24	31 ± 5	1.2 ± 0.5	0.083	0.16	1181	2096	
NCCCC[C@H](NC(=O)c1cccc2c3c([nH]c12)[C@@H]1Oc2c(O)ccc4c2[C@@]12CCN(CC1CC1)[C@H](C4)[C@]2(O)C3)C(=O)O [Compound 6, 7'-(N(α)-Carboxamido-L-lysine)-17-(cyclopropylmethyl)-6,7-dehydro-3,14dihydroxy-4,5α-epoxy-6,7,2',3'-indolomorphinan hydrochloride]	1.0 ± 0.4	0.4	5.2 nM and 1 to 5 nM	20	20	20 ± 4	1.1 ± 0.0	0.75	0.3	134	719	preference between δ1 and δ2 putative binding sites (in words) ([8]; hydrochloride): modest preference for [^3 H]DPDPE sites; also recorded: modest preference for δ1 over δ2 sites
O=C(O)c1cccc2c3c([nH]c12)[C@@H]1Oc2c(O)ccc4c2[C@@]12CCN(CC1CC1)[C@H](C4)[C@]2(O)C3 [Compound 7, 7'-Carboxy-17-(cyclopropylmethyl)-6,7-dehydro-3,14-dihydroxy-4,5α-epoxy-6,7,2',3'-indolomorphinan hydrochloride]	2.0 ± 0.3	0.8					1.0 ± 0.2	0.016	0.013	3246	1846	Ki [2]: 42 nM; affinity for δ1 sites relative to NTI (times greater) [6]: 6 times; affinity for δ sites (in words) ([6]; δ1 and δ2 sites, guinea pig membranes): high affinity for δ sites; δ opioid receptor antagonist potency (in words) [9]: δ antagonist potency approaching that of NTI; Kb ([9]; MVD, DADLE, concentration of 7 was 10 nM): 0.4 nM; calculated IC50 ratio based on 100 nM of 7 ([9]; MVD, DADLE, calculated for 100 nM): 238; IC50 Selectivity Ratio δ/κ [9, 19]: 231; IC50 Selectivity Ratio δ/μ [9, 19]: 122
Oc1ccc2c3c1OC1c4c(c5ccccc5n4Cc4ccccc4)CC4(O)C(C2)N(CC2CC2)CCC314 (stereo not drawn) [benzylnaltrindole]												in vivo δ subtype selectivity (in words) [13]: δ2 -selective antagonists; lipophilicity (in words) [14]: considerably more lipophilic than 2 or 3
Oc1ccc2c3c1O[C@H]1c4oc5ccccc5c4C[C@@]4(O)[C@@H](C2)N(CC2CC2)CC[C@]314 [naltriben (NTB), naltriben]												in vivo δ subtype selectivity (in words) [13]: δ2 -selective antagonists; suppression of ethanol drinking (in words) [15]: unexpectedly prolonged suppression of ethanol drinking; lipophilicity (in words) [14]: considerably more lipophilic than 2 or 3
